Experimental data taken from patent publication US10604555B2, “GIP derivatives and uses thereof” (priority 2018, dated 2020).
*1 amine or outer side, *2 acyl side, *3 side chain or, on linkers, in order; H or OH if unused. Where a SMILES comes first, the peptide text is derived from it. Side-chain parts run from the residue outwards. [ ]: non-standard residue; d: D form. The star is where a group is joined. C18 diacid = O=C(O)CCCCCCCCCCCCCCCCC(=O)*; γGlu = O=C(O)[C@H](CCC(=O)[*:2])N[*:1]; Nle = CCCC[C@H](N)C(=O)O; Aib = CC(C)(N)C(=O)O

Key:
human GIP receptor = target: T1, human GIP receptor (Homo sapiens, UniProt P48546); assay: In vitro potency (CRE luciferase; whole cells), BHK CRE luc2P hGIPR; format: cell-based; settings: 0.2% HSA
T1 construct: expressed in transfected cells; host or cells: BHK (parent line BHKTS13), BHK CRE luc2P hGIPR clone #5
T1 sequence (P48546 22-466): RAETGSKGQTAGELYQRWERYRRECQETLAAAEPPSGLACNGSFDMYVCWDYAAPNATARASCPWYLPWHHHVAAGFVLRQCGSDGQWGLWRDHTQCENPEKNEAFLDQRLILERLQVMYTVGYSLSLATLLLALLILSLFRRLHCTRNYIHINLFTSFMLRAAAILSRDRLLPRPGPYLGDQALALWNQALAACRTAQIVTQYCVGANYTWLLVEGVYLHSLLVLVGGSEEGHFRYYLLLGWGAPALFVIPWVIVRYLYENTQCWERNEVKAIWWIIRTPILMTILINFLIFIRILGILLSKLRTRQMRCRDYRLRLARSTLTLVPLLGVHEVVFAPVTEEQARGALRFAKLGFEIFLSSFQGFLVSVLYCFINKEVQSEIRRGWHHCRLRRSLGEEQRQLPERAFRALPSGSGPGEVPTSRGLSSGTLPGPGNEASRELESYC
In short: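 BHK clones carrying a CRE luciferase element, each transfected with one human receptor, were seeded at 5000 cells/well overnight. Compounds were diluted in buffer with 1% ovalbumin and 0.1% Pluronic F-68, with or without human serum albumin. Luminescence was read after steadylite plus; non-linear log(agonist)-response fit, averaged over at least two replicates.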

[1] = Pharmacokinetic study in minipigs, terminal half-life after i.v. administration; format: in vivo; settings: female, Göttingen, minipig, plasma, iv, 5 nmol/kg; read-out: t1/2 (hours) harmonic mean (converted)
Experimental: This is done in a pharmacokinetic (PK) study, where the terminal half-life of the derivative in question is determined. By terminal half-life is generally meant the period of time it takes to halve a certain plasma concentration, measured after the initial distribution phase.
Female Göttingen minipigs were obtained from Ellegaard Göttingen Minipigs (Dalmose, Denmark) approximately 7-14 months of age and weighing from approximately 16-35 kg were used in the studies. The minipigs were housed individually and fed restrictedly once daily with SDS minipig diet (Special Diets Services, Essex, UK).
After at 3 weeks of acclimatisation two permanent central venous catheters were implanted in vena cava caudalis in each animal. The animals were allowed 1 week recovery after the surgery, and were then used for repeated pharmacokinetic studies with a suitable wash-out period between successive derivative dosing.
Blood samples (for example 0.8 ml) were collected in EDTA buffer (8 mM) and then centrifuged at 4° C. and 1942G for 10 minutes.
Individual plasma concentration-time profiles were analysed by a non-compartmental model in Phoenix WnNonLin ver. […] (Pharsight Inc., Mountain View, Calif., USA), and the resulting terminal half-lives (harmonic mean) determined.

| EC50 (human GIP receptor) [nM] | half-life [1] [h] | SMILES |
| --- | --- | --- |
| 0.0489 | 84 | CCCC[C@H](NC(=O)[C@H](C)NC(=O)[C@@H](NC(=O)[C@H](CO)NC(=O)[C@H](Cc1ccc(O)cc1)NC(=O)[C@H](CC(=O)O)NC(=O)[C@H](CO)NC(=O)[C@@H](NC(=O)[C@H](Cc1ccccc1)NC(=O)[C@@H](NC(=O)CNC(=O)[C@H](CCC(=O)O)NC(=O)[C@H](C)NC(=O)[C@@H](Cc1ccc(O)cc1)NC(C)=O)[C@@H](C)O)[C@@H](C)CC)[C@@H](C)CC)C(=O)N[C@@H](CC(=O)O)C(=O)N[C@@H](CCCCN)C(=O)N[C@H](C(=O)N[C@@H](CCCNC(=N)N)C(=O)N[C@@H](CCC(N)=O)C(=O)N[C@@H](CCC(N)=O)C(=O)N[C@@H](CC(=O)O)C(=O)N[C@@H](Cc1ccccc1)C(=O)N[C@H](C(=O)N[C@@H](CCCCNC(=O)CC[C@H](NC(=O)CC[C@H](NC(=O)CC[C@H](NC(=O)CCCCCCCCCCCCCCCCC(=O)O)C(=O)O)C(=O)O)C(=O)O)C(=O)N[C@@H](Cc1c[nH]c2ccccc12)C(=O)N[C@@H](CC(C)C)C(=O)N[C@@H](CC(C)C)C(=O)N[C@@H](C)C(=O)N[C@@H](CCC(N)=O)C(=O)N[C@@H](CCCCN)C(=O)NCC(=O)O)C(C)C)[C@@H](C)CC [Compound 7, N{1}-acetyl, N{Epsilon-24}-[(4S)-4-carboxy-4-[[(4S)-4-carboxy-4-[[(4S)-4-carboxy-4-(17-carboxyheptadecanoylamino)butanoyl]amino]butanoyl]amino]butanoyl]-[D-Tyr1,Nle14,Arg18, Lys24]-hGIP(1-31)] |
| 0.0094 | 89 | CCCC[C@H](NC(=O)[C@H](C)NC(=O)[C@@H](NC(=O)[C@H](CO)NC(=O)[C@H](Cc1ccc(O)cc1)NC(=O)[C@H](CC(=O)O)NC(=O)[C@H](CO)NC(=O)[C@@H](NC(=O)[C@H](Cc1ccccc1)NC(=O)[C@@H](NC(=O)CNC(=O)[C@H](CCC(=O)O)NC(=O)C(C)(C)NC(=O)[C@@H](N)Cc1ccc(O)cc1)[C@@H](C)O)[C@@H](C)CC)[C@@H](C)CC)C(=O)N[C@@H](CC(=O)O)C(=O)N[C@@H](CCCCN)C(=O)N[C@H](C(=O)N[C@@H](CCCNC(=N)N)C(=O)N[C@@H](CCC(N)=O)C(=O)NC(C)(C)C(=O)N[C@@H](CC(=O)O)C(=O)N[C@@H](Cc1ccccc1)C(=O)N[C@H](C(=O)N[C@@H](CCCCNC(=O)CC[C@H](NC(=O)CC[C@H](NC(=O)CC[C@H](NC(=O)CCCCCCCCCCCCCCCCC(=O)O)C(=O)O)C(=O)O)C(=O)O)C(=O)N[C@@H](Cc1c[nH]c2ccccc12)C(=O)N[C@@H](CC(C)C)C(=O)N[C@@H](CC(C)C)C(=O)N[C@@H](C)C(=O)N[C@@H](CCC(N)=O)C(=O)N[C@@H](CCCCN)C(=O)NCC(=O)O)C(C)C)[C@@H](C)CC [Compound 11, N{Epsilon-24}-[(4S)-4-carboxy-4-[[(4S)-4-carboxy-4-[[(4S)-4-carboxy-4-(17-carboxyheptadecanoylamino)butanoyl]amino]butanoyl]amino]butanoyl]-[Aib2,Nle14,Arg18,Aib20,Lys24]-hGIP(1-31)] (H-Y[Aib]EGTFISDYSIA[Nle]DKIRQ[Aib]DFVK([γGlu-γGlu-γGlu-C18 diacid])WLLAQKG-OH) |
| 0.0304 | 81 | CCCC[C@H](NC(=O)[C@H](C)NC(=O)[C@@H](NC(=O)[C@H](CO)NC(=O)[C@H](Cc1ccc(O)cc1)NC(=O)[C@H](CC(=O)O)NC(=O)[C@H](CO)NC(=O)[C@@H](NC(=O)[C@H](Cc1ccccc1)NC(=O)[C@@H](NC(=O)CNC(=O)[C@H](CCC(=O)O)NC(=O)[C@H](C)NC(=O)[C@@H](Cc1ccc(O)cc1)NC(C)=O)[C@@H](C)O)[C@@H](C)CC)[C@@H](C)CC)C(=O)N[C@@H](CC(=O)O)C(=O)N[C@@H](CCCCN)C(=O)N[C@H](C(=O)N[C@@H](CCCNC(=N)N)C(=O)N[C@@H](CCC(N)=O)C(=O)N[C@@H](CCC(N)=O)C(=O)N[C@@H](CC(=O)O)C(=O)N[C@@H](Cc1ccccc1)C(=O)N[C@H](C(=O)N[C@@H](CCCCNC(=O)COCCOCCNC(=O)COCCOCCNC(=O)CC[C@H](NC(=O)CCCCCCCCCCCCCCCCC(=O)O)C(=O)O)C(=O)N[C@@H](Cc1c[nH]c2ccccc12)C(=O)N[C@@H](CC(C)C)C(=O)N[C@@H](CC(C)C)C(=O)N[C@@H](C)C(=O)N[C@@H](CCC(N)=O)C(=O)N[C@@H](CCCCN)C(=O)NCC(=O)O)C(C)C)[C@@H](C)CC [Compound 15, N{1}-acetyl,N{Epsilon-24}-[2-[2-[2-[[2-[2-[2-[[(4S)-4-carboxy-4-(17-carboxyheptadecanoylamino)butanoyl]amino]ethoxy]ethoxy]acetyl]amino]ethoxy]ethoxy]acetyl]-[D-Tyr1,Nle14,Arg18,Lys24]-hGIP(1-31)] |
| 0.0431 | 88 | CCCC[C@H](NC(=O)[C@H](C)NC(=O)[C@@H](NC(=O)[C@H](CO)NC(=O)[C@H](Cc1ccc(O)cc1)NC(=O)[C@H](CC(=O)O)NC(=O)[C@H](CO)NC(=O)[C@@H](NC(=O)[C@H](Cc1ccccc1)NC(=O)[C@@H](NC(=O)CNC(=O)[C@H](CCC(=O)O)NC(=O)[C@H](C)NC(=O)[C@@H](Cc1ccc(O)cc1)NC(C)=O)[C@@H](C)O)[C@@H](C)CC)[C@@H](C)CC)C(=O)N[C@@H](CC(=O)O)C(=O)N[C@@H](CCCCN)C(=O)N[C@H](C(=O)N[C@@H](CCCNC(=N)N)C(=O)N[C@@H](CCC(N)=O)C(=O)N[C@@H](CCC(N)=O)C(=O)N[C@@H](CC(=O)O)C(=O)N[C@@H](Cc1ccccc1)C(=O)N[C@H](C(=O)N[C@@H](CCCCNC(=O)COCCOCCNC(=O)COCCOCCNC(=O)CC[C@H](NC(=O)CC[C@H](NC(=O)CC[C@H](NC(=O)CCCCCCCCCCCCCCCCC(=O)O)C(=O)O)C(=O)O)C(=O)O)C(=O)N[C@@H](Cc1c[nH]c2ccccc12)C(=O)N[C@@H](CC(C)C)C(=O)N[C@@H](CC(C)C)C(=O)N[C@@H](C)C(=O)N[C@@H](CCC(N)=O)C(=O)N[C@@H](CCCCN)C(=O)NCC(=O)O)C(C)C)[C@@H](C)CC [Compound 17, N{1}-acetyl,N{Epsilon-24}-[2-[2-[2-[[2-[2-[2-[[(4S)-4-carboxy-4-[[(4S)-4-carboxy-4-[[(4S)-4-carboxy-4-(17-carboxyheptadecanoylamino)butanoyl]amino]butanoyl]amino]-butanoyl]amino]ethoxy]ethoxy]acetyl]amino]ethoxy]ethoxy]acetyl]-[D-Tyr1,Nle14,Arg18,Lys24]-hGIP(1-31)] |
